Laboratory results: article PMC8607231, “Generation of KS-133 as a Novel Bicyclic Peptide with a Potent and Selective VIPR2 Antagonist Activity that Counteracts Cognitive Decline in a Mouse Model of Psychiatric Disorders” (Frontiers in Pharmacology, 2021)
Where a SMILES comes first, the peptide text is derived from it. Bridges are numbered along the chain shown (N, C = ends).

Target: T1, human VIPR2 (Homo sapiens, UniProt P41587)
T1 construct: host or cells: CHO-K1
T1 sequence (P41587 24-438): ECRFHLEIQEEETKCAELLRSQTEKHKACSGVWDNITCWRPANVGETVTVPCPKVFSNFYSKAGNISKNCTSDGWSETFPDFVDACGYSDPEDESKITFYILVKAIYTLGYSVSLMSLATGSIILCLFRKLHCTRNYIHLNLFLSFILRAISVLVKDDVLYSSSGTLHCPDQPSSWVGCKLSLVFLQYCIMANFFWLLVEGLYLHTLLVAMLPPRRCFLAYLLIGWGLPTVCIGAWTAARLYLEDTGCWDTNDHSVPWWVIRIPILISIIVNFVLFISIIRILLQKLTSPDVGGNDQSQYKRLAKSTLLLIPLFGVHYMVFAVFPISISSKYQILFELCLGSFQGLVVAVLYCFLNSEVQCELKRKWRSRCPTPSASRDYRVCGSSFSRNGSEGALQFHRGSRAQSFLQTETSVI
Assay: HitHunter cAMP assay, agonist mode
Format: cell-based
Method: Evaluation of antagonist activities of peptides against VIP-VIPR1, VIP-VIPR2, and PACAP-PAC1 signaling pathways and agonistic activity of KS-133 at VIPR2 was carried out by Eurofins DiscoverX (Fremont, CA, United States). Intracellular calcium mobilization was monitored using a calcium-sensitive dye loaded in CHO-K1 cells expressing human VIPR1 (ITEM 86-0030P-2243AN), VIPR2 (ITEM 86-0030P-2244AN), and PAC1 (ITEM 86-0030P-2066AN). The cells were preincubated with antagonistic peptides for 30 min at room temperature in the dark. After addition of the ligand at EC80, calcium mobilization was immediately monitored by FLIPR Tetra for 2 min. Cyclic AMP production in CHO-K1 cells expressing human VIPR2 was evaluated using HitHunter® cAMP assays (antagonist mode: ITEM 86-0007P-2362AN; agonist mode: ITEM 86-0007P-2362AG). […] Cells were lysed and the cAMP content of the cell lysate was determined by the β-galactosidase-based enzyme fragment complementation assay ([Eglen, 2002]). […]
FIGURE 3 Antagonistic/agonistic activities of peptides in the calcium influx and cAMP assays. […] In the calcium influx assay, after addition of ligand at EC80, calcium mobilization was monitored immediately (see details in the Methods section) (n = 4 wells for each treatment). […]
Next, antagonistic and agonistic activities of KS-133 at VIPR2 were evaluated by a cAMP assay. […]

CC[C@H](C)[C@H](NC(=O)[C@H](CC(C)C)NC(=O)[C@@H]1CC(=O)NCCCC[C@@H]2NC(=O)[C@@H]3CCCN3C(=O)[C@H](CC(C)C)NC(=O)[C@H](Cc3ccc(O)cc3)NC(=O)[C@@H]3CCCN3C(=O)[C@@H]3CCCN3C(=O)[C@@H](NC(C)=O)CSSC[C@H](NC(=O)[C@H](CC(C)C)NC(=O)[C@H](Cc3ccc(O)cc3)NC2=O)C(=O)N1)C(N)=O [KS-133, Ac-c[Cys-Pro-Pro-Tyr-Leu-Pro-c(Lys-Tyr-Leu-Cys]-Asp)-Leu-Ile-NH2] (Ac-CPPYLPKYLCDLI-NH2; disulfide 1-10; lactam 7-11)
cAMP assay (nM) Agonistic activity VIPR2 (agonist mode, CHO-K1 cells): >5,000 nM | VIPR2 agonist activity (cAMP assay, at high concentration of 5 μM): did not exhibit VIPR2 agonist activity
